Literature values as cited in article PMC8398847, “Isavuconazole: Thermodynamic Evaluation of Processes Sublimation, Dissolution and Partition in Pharmaceutically Relevant Media” (Molecules, 2021).
Several values for one entry are separate records, joined by “and”; a condition that tells them apart may be missing. Equal entries are not always repeated.

Conditions: 298.15 K, cited from earlier work; for sublimation Gibbs energy (kJ∙mol-1, Table S2) / sublimation enthalpy (first kJ∙mol-1 column, Table S2): bicalutamide cluster; for sublimation Gibbs energy (Table S1) / sublimation enthalpy (Table S1): IVZ cluster, ref Table S1 [1]-[16]

Molecule	sublimation Gibbs energy (kJ∙mol-1, Table S2)	sublimation enthalpy (first kJ∙mol-1 column, Table S2)	sublimation Gibbs energy (Table S1) [kcal/mol]	sublimation enthalpy (Table S1) [kcal/mol]
CC(=O)Nc1ccc(Cl)cc1 [4'-Chloroacetanilide]	50.1 kJ/mol	113.8 kJ/mol		
CC(=O)Nc1ccc(Br)cc1 [4'-Bromoacetanilide]	51.2 kJ/mol	113.4 kJ/mol		
CC(=O)Nc1cccc(O)c1 [3-Acetamidophenol]	56.4 kJ/mol	111 kJ/mol		
N#Cc1ccc(F)cc1 [4-Fluorobenzonitrile]			4.21	16.2
NC(=O)c1cccc(F)c1 [3-Fluorobenzamide]	42.5 kJ/mol	104.1 kJ/mol		
CC(=O)Nc1ccc(C)cc1 [N-(4-methylphenyl)acetamide]	44.5 kJ/mol	99 kJ/mol		
CC(C)(O)c1ccccc1 [1-methyl-1-phenylethanol]	22 kJ/mol	82.3 kJ/mol	5.26	19.7
N#Cc1cccc(F)c1 [3-Fluorobenzonitrile]			3.78	15.6
O=C(O)c1cccnc1Nc1cccc(C(F)(F)F)c1 [Niflumic acid]	61.3 kJ/mol	130.2 kJ/mol		
CC12CC3CC(C)(C1)CC(NS(=O)(=O)c1ccc(C(F)(F)F)cc1)(C3)C2 [N-(3,5-Dimethyl-adamantan-1-yl)-4-trifluoromethyl-benzenesulfonamide]	49.6 kJ/mol	107.7 kJ/mol		
Oc1ccc(F)cc1 [4-Fluorophenol]	19.9 kJ/mol	74.1 kJ/mol	4.76	17.7
CC(=O)Nc1cccc2ccccc12 [N-acetyl-1-naphthylamine]	47.9 kJ/mol	94 kJ/mol and 94.1 kJ/mol		
N#Cc1ccc(Br)cc1 [4-Bromobenzonitrile]			6.81	19.3
CC(C(=O)O)c1ccc(-c2ccccc2)c(F)c1 (centres unmarked) [Flurbiprofen]			12.7	26.34
CC(O)Cc1nsc(Nc2ccc(F)cc2)n1 (centres unmarked) [1-[5-(4-Fluoro-phenylamino)-[1,2,4]thiadiazol-3-yl]-propan-2-ol]	59.1 kJ/mol	124.8 kJ/mol		
NC(=O)c1ccccc1F [2-Fluorobenzamide]	35.8 kJ/mol	95.4 kJ/mol		
NC(=O)c1ccc(N)cc1 [p-Aminobenzamide]	61.7 kJ/mol	131.2 kJ/mol		
2-phenylcarbamoyl-3-methylquinoxaline-N-oxide	69.2 kJ/mol	145.1 kJ/mol		
N#Cc1ccc2ccccc2c1 [2-Naphthalenecarbonitrile]			8.08	22
O=C(O)c1ccccc1Nc1ccccc1 [N-phenyl-Anthranilic acid]	58.9 kJ/mol	126 kJ/mol		
O=[N+]([O-])c1ccc(F)cc1 [4-Fluoronitrobenzene]	18.9 kJ/mol	70.9 kJ/mol		
CC(=O)Nc1ccccc1C [N-(2-methylphenyl)acetamide]	40.9 kJ/mol	97.1 kJ/mol		
NC(=O)c1cccc(N)c1 [m-Aminobenzamide]	57.5 kJ/mol and 57.8 kJ/mol	125.3 kJ/mol and 128.6 kJ/mol		
CC(O)(CS(=O)(=O)c1ccc(F)cc1)C(=O)Nc1ccc(C#N)c(C(F)(F)F)c1 (centres unmarked) [Bicalutamide]	63.7 kJ/mol	124.7 kJ/mol	15.2	29.8
O=C(O)c1ccccc1F [2-fluorobenzoic acid]	35.5 kJ/mol	94.4 kJ/mol	8.48	22.6

Molecule	sublimation Gibbs energy (kJ∙mol-1, Table S2)	sublimation enthalpy (first kJ∙mol-1 column, Table S2)	sublimation Gibbs energy (Table S1) [kcal/mol]	sublimation enthalpy (Table S1) [kcal/mol]
Fc1ccccc1-c1ccccc1F [2,2'-difluorobiphenyl]	32.3 kJ/mol	95 kJ/mol	7.72	22.7
Cc1ccccc1NC(=O)c1c(C)[n+]([O-])c2ccccc2[n+]1[O-] [3-methyl-N-(2-methylphenyl)-2-quinoxalinecarboxamide-1,4-dioxide]	71.9 kJ/mol	154.8 kJ/mol		
c1ccc(CNc2ccccc2)cc1 [N-phenyl benzylamine]	36.9 kJ/mol	104.4 kJ/mol		
NC(=O)c1ccccc1N [o-Aminobenzamide]	46.1 kJ/mol	106.8 kJ/mol		
CNc1ccc(C(=O)O)cc1 [4-(methylamino)benzoic acid]	55.3 kJ/mol	123.9 kJ/mol		
CC(=O)Nc1ccccc1C(=O)O [2-(acetylamino)-Benzoic acid]	54.4 kJ/mol	115.5 kJ/mol		
N#Cc1ccc(I)cc1 [4-Iodobenzonitrile]			7.84	21
CC(=O)c1ccc(F)cc1 [p-fluoroacetophenone]			4.21	17.1
CC(=O)Nc1ccc(O)cc1 [Paracetamol]	60 kJ/mol	117.9 kJ/mol		
O=[N+]([O-])c1cccc(F)c1 [3-Fluoronitrobenzene]	17.1 kJ/mol	72.3 kJ/mol		
CC(=O)NCC(=O)Nc1ccccc1 [acetylglycine anilide]	59.9 kJ/mol	125.4 kJ/mol		
O=C(O)c1cc(-c2ccc(F)cc2F)ccc1O [Diflunisal (Form A), Diflunisal]	57.6 kJ/mol	120.1 kJ/mol		
Cc1cccc(Nc2ccccc2C(=O)O)c1C [Mefenamic Acid]	59.2 kJ/mol	136.3 kJ/mol		
Fc1ccc(-c2ccc(F)cc2)cc1 [4,4'-difluorobiphenyl]	30.2 kJ/mol	91.2 kJ/mol	7.22	21.8
CC(N)=O [Acetamide]	40.5 kJ/mol	99.8 kJ/mol		
NC(=O)c1ccc(F)cc1 [4-Fluorobenzamide]	43.2 kJ/mol	102.8 kJ/mol		
O=C(O)c1ccc(F)cc1 [4-fluorobenzoic acid]	36.8 kJ/mol	93.1 kJ/mol	8.8	22.3
CC(=O)Nc1ccc(C=O)cc1 [p-acetaminobenzaldehyde]	44.1 kJ/mol	99.1 kJ/mol		
N#Cc1ccc(C(=O)O)cc1 [4-Cyanobenzoic acid]	50.7 kJ/mol	112.8 kJ/mol		
O=C(O)c1ccccc1Nc1cccc(C(F)(F)F)c1 [Flufenamic acid]	54.3 kJ/mol	121.2 kJ/mol		
CC(O)(c1ccccc1)c1ccccc1 [1,1-diphenylethanol]	39.1 kJ/mol	105 kJ/mol	9.35	25.1
Fc1ccc(-n2cccc2)cc1 [1-(4-fluorophenyl)pyrrole]	25.4 kJ/mol	78.9 kJ/mol		
O=C(O)c1cccc(F)c1 [3-fluorobenzoic acid]	34.4 kJ/mol	93.6 kJ/mol	8.22	22.4
CC(=O)Nc1ccccc1O [2'-Hydroxyacetanilide]	52.8 kJ/mol	121.8 kJ/mol		
